Results on 10 compounds are retold here after ChEMBL document CHEMBL1201862, “PubChem BioAssay data set” (2004).

Active and inactive are the calls of the source.

Experiment [1] is described as follows: viability loss in HepG2 hepatoma cells – cell-based, ATP luminescence, cherry-pick, activator set 2, cytotoxicity control, dose response (AID 1053143). The format is functional.
The target in experiment [2] is DNA repair and recombination protein RAD54-like (Homo sapiens, UniProt Q92698). Nature of the experiment: RAD54 Holliday junction migration blockers – biochemical, fluorescence, cherry-picked samples, dose series, confirmation (AID 651657). The format is functional.
Sequence of DNA repair and recombination protein RAD54-like (Q92698 whole entry): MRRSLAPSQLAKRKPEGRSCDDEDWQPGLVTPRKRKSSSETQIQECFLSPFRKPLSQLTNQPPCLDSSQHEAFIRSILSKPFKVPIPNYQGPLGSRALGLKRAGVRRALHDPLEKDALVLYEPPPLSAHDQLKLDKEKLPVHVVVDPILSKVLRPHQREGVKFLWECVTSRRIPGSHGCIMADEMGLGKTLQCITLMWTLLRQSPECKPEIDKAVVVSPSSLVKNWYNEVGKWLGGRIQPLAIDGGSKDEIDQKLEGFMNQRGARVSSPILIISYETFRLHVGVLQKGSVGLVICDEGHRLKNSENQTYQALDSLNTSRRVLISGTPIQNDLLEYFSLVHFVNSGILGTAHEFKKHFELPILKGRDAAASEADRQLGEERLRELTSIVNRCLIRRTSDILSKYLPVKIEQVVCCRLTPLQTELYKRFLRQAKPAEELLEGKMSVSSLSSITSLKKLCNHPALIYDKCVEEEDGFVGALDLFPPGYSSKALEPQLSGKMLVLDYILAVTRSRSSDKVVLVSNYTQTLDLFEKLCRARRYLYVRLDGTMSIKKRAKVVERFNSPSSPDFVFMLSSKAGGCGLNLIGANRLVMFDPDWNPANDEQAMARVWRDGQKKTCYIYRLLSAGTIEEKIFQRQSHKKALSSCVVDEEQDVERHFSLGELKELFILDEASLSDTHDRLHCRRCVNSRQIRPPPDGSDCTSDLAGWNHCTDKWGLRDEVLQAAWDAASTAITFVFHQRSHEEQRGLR
Experiment [3] addresses DNA repair protein RAD52 homolog (Homo sapiens, UniProt P43351). The format is functional, biochemical.
Experiment [4] can be described thus: T. cruzi growth inhibition in host cells, dose response, cell-based, plate reader, dry powder, set 2 (AID 652275). The format is functional.
Experiment [5] addresses FAD-linked sulfhydryl oxidase ALR (Homo sapiens, UniProt P55789). Nature of the experiment: ALR-catalysed DTT oxidation blockers – biochemical, H2O2 detection, luminescence, cherry-pick, dose response (AID 493248).
The target of experiment [6] is T1, Oxysterols receptor LXR-beta (Homo sapiens, UniProt P55055).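 Further: agonist activity at LXR measured by a cell-based luminescence readout across a dose range, run as a counterscreen for daf-12 agonists; HEK293 cells with Gal4-LXR fusion and GAL4-driven luciferase reporter; potency for activation of Gal4-LXR reporter so compounds are agonists.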
T1 sequence (P55055 whole entry): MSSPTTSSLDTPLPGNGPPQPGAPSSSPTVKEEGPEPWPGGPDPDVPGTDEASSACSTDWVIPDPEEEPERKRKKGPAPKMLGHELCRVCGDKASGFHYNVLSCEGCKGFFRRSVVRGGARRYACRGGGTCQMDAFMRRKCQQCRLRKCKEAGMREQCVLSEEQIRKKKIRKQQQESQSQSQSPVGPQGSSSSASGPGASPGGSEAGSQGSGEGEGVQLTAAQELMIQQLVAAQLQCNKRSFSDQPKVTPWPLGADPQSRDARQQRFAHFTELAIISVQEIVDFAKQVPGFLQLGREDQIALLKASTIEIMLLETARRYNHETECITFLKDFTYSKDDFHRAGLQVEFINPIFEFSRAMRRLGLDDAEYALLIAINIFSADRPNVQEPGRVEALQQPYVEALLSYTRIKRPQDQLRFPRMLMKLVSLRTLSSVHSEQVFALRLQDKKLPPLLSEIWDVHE
It counts as functional, cell-based.

For another experiment, the target named is Protein Wnt-3a (Mus musculus, UniProt P27467). Nature of the experiment: SAR analysis of small molecule antagonists of Gli-SUFU in a Wnt3a luminescent reporter assay. It counts as functional. Background: A reporter such as luciferase makes a cellular process visible.
Sequence of Protein Wnt-3a (P27467 whole entry): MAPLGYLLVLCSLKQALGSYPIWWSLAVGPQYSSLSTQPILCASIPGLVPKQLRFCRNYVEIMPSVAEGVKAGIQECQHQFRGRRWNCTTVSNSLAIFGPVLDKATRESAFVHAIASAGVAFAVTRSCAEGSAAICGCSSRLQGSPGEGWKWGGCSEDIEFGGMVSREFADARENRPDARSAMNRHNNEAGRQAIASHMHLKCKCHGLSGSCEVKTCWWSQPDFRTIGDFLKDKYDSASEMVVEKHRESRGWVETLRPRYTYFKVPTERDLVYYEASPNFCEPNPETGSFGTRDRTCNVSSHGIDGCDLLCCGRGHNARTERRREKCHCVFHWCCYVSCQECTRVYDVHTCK
The target in experiment [7] is T2, High affinity choline transporter 1 (Homo sapiens, UniProt Q9GZV3).
T2 sequence (Q9GZV3 whole entry): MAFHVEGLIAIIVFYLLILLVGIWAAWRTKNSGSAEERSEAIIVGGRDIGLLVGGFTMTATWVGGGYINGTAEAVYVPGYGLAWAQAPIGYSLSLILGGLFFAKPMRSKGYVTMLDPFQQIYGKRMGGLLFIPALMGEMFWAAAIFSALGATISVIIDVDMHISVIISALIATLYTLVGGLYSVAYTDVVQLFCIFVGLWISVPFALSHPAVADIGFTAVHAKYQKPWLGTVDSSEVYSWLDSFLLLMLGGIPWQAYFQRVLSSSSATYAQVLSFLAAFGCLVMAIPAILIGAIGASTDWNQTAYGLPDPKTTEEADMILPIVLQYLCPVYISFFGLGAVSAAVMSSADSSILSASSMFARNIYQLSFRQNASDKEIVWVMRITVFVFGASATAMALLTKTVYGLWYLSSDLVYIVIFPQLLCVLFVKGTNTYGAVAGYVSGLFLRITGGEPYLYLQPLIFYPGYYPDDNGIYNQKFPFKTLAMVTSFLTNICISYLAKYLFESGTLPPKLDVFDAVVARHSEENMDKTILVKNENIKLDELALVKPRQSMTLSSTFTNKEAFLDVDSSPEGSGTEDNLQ
The experiment can be described thus: human choline transporter blockers, potency – cell-based, 5-point CRC, membrane potential dye, dose response (AID 504840). It counts as functional.

Experiment [8] is described as follows: HGIII-sPLA2 enzyme inhibition potency – biochemical, QFRET, IC50, dose response (AID 743457).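 Further: green fluorescence rise as the enzyme cleaves BODIPY PC-A2 in liposomes.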
In experiment [9] the target is Protein disulfide-isomerase (Homo sapiens, UniProt P07237). The experiment can be described thus: inhibition of PDI-mediated insulin reduction – biochemical, turbidity, dry powder samples, set 2, confirmation (AID 652146).
Sequence of Protein disulfide-isomerase (P07237 whole entry): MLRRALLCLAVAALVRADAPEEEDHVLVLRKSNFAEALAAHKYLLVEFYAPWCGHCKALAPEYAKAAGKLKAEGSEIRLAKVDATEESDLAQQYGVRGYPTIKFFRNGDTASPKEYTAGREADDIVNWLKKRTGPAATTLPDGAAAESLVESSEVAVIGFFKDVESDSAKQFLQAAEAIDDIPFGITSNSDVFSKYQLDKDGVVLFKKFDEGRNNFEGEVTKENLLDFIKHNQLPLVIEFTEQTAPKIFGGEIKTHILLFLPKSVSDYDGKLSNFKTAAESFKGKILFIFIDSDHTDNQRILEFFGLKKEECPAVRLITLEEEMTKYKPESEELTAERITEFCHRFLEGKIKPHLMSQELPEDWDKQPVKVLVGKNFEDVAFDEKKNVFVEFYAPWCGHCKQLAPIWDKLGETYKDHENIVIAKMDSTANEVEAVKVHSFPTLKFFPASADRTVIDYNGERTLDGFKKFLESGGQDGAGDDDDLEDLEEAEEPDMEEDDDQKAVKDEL
Experiment [10] in a line: Trypanosoma cruzi growth suppression in host cells – NIH3T3 host cells, beta-gal luminescence, confirmation (AID 2044).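 Further: intracellular parasites grown in NIH/3T3 mouse fibroblasts as host cells; luminescent beta-galactosidase reporter signal from transgenic T. cruzi replicating inside host cells; inhibitors lower the luminescence signal.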 It counts as functional, cell-based.
Experiment [11] in a line: NIH3T3 cell viability loss – ATP luminescence, mouse fibroblasts, counter-screen, dose response (AID 2010).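 Further: cells exposed to compound for about 90 hours before reading.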 It counts as functional, cell-based. A general note: A counterscreen serves to expose hits that act by an unwanted route or on another target.
The target of another experiment is Trypsin (Sus scrofa, UniProt P00761). The experiment can be described thus: trypsin protease activity blockade – biochemical, quenched peptide fluorescence, cherry-pick, selectivity assay for Rce1 protease inhibitor project, dose response (AID 488789).
Sequence of Trypsin (P00761 whole entry): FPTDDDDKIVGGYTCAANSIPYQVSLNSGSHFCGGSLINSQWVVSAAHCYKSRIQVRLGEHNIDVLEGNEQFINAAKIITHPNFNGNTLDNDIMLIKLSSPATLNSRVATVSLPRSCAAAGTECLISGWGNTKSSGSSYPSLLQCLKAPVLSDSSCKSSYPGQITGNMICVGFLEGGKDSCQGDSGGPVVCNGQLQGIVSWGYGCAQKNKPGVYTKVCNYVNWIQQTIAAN
Experiment [12] has as its target T3, Ubiquitin-conjugating enzyme E2 N (Homo sapiens, UniProt P61088).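 Further: Dose-response confirmation in a TR-FRET assay detecting UBC13-driven polyubiquitin chain formation, inhibition measured.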
T3 sequence (P61088 whole entry): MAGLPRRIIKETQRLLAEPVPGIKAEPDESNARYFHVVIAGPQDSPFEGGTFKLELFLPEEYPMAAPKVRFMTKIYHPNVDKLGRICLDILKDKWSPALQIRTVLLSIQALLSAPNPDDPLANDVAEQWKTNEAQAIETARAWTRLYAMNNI
It counts as functional.

The target in a further experiment is T4, CAAX prenyl protease 2 (Homo sapiens, UniProt Q9Y256).
T4 sequence (Q9Y256 whole entry): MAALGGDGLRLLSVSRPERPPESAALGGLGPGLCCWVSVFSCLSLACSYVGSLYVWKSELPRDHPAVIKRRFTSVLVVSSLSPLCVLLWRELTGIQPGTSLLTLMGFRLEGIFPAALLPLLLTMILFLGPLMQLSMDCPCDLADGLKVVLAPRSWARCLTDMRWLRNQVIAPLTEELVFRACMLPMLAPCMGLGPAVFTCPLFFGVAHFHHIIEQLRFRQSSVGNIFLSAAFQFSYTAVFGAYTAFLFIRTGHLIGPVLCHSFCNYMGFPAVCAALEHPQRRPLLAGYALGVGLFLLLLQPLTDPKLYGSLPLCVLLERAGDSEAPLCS
Nature of the experiment: inhibition of Ras-converting CAAX protease Rce1 – biochemical, yeast membranes, quenched-peptide fluorescence, cherry-pick, dose response (AID 588849).

Sequence of DNA repair protein RAD52 homolog (P43351 whole entry): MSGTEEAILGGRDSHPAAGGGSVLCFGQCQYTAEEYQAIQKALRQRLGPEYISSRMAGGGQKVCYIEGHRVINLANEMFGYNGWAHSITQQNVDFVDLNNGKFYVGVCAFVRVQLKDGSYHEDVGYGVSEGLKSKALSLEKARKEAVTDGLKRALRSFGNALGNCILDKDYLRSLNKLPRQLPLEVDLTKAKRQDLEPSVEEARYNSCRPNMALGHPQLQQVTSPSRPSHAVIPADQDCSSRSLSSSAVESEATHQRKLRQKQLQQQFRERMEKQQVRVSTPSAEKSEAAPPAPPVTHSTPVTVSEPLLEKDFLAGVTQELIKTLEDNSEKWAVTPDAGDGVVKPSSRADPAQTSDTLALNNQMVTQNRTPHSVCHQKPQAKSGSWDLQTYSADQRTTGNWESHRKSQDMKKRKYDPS
Sequence of FAD-linked sulfhydryl oxidase ALR (P55789 whole entry, the tested form may be a part): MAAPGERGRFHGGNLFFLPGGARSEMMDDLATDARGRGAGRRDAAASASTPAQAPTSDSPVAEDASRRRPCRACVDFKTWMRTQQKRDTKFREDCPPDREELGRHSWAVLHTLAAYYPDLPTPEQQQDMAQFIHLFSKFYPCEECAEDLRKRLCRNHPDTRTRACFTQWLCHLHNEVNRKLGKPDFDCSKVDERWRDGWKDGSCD

For `Cc1ncoc1C(=O)Nc1ncc([N+](=O)[O-])s1`, in experiment [1], the concentration at half-maximal activity (AC50) (commonly the concentration giving half of the maximal activity seen) is 26 µM (active).
Turning to `CN(C)CCCN(C(=O)c1ccc([N+](=O)[O-])o1)c1nc2cc3c(cc2s1)OCO3`, the concentration at half-maximal activity (AC50) is 24.6 µM (active) in experiment [2] and 10.5 µM (active) in experiment [3].
`CC(C)N1CC2(CN(Cc3ccc(-c4cccnc4)cc3)C2)Oc2c(NC(=O)c3ccncc3)cccc2C1=O`: the AC50 in experiment [4] is 0.179 µM (active).
As for `Cc1nn(-c2ccccc2)c(Cl)c1/C=N/Nc1ccc(Cl)c(C(=O)O)c1`, the AC50 in [5] was 0.907 µM (active). In addition, in experiment [6], the EC50 (as a rule, the concentration needed to bring the measured effect to its halfway point) was > 67.5 µM (inactive).
Turning to `O=C(c1ccc(F)cc1)N1CCCCN2[C@@H](CO)[C@H](c3ccc(-c4ccccc4)cc3)[C@@H]2C1`, the AC50 in experiment [4] is 2.56 µM (active).
Regarding `CCN(CC)c1cc(NC(=O)c2cc(OC)cc(OC)c2)ncn1`, the IC50 (commonly the midpoint of a concentration-inhibition curve) at Protein Wnt-3a is > 21.8 µM (inactive).
On the same count and under the same terms, in the case of `CCN(CC)c1cc(NC(=O)c2ccccc2)ncn1` it was > 21.8 µM (inactive).
With `O=C(NN=C(S)Nc1ccc(F)cc1)C1CC1c1ccc(Cl)cc1` (stereo not drawn), the half-inhibitory concentration (IC50) in experiment [7] was 13.2 µM (active); in [8], > 122 µM (inactive).
On to `O=C(NC1CCCC1)C1(CCOc2ccccc2)CCN(Cc2ccc(O)c(Cl)c2)CC1`, for which the concentration at half-maximal activity (AC50) in experiment [9] was 5 µM (active).
For `CCOC(=O)c1c(-c2ccccc2)oc2ccc(OCC(O)CNCCN(C)C)cc12` (stereo not drawn), the figures for the concentration giving a half-maximal response (EC50) in experiment [10] and in experiment [11] were 1.79 µM (active) and 5.42 µM (active), respectively. The figures for the AC50 (at Trypsin; at CAAX prenyl protease 2; in [3]) were 10.3 µM (active), 11.8 µM (active) and 5 µM (active), respectively. Besides, the IC50 in experiment [12] is > 20 µM (inactive).
